Values after ≈ are worked out from the molar mass of the structure shown. Like-named read-outs stand apart in the source and are kept apart here.
Tests used:
E. coli biofilms = experiment: Minimum biofilm eradication concentration (MBEC) with the Calgary Biofilm Device; format: cell-based, Escherichia coli K-12; conditions: for MBEC (dark) / MBEC (light): E. coli biofilm; for MBEC (dark): 24 h incubation in the dark; for MBEC (light): 1 h near-UV light (300-400 nm)
Protocol: (§1) Escherichia coli K-12 was obtained from the American Type Culture Collection (ATCC #10798), revived in Luria Broth (LB, Sigma) and stored in LB with 20% (v/v) glycerol at −70° C. Stock cultures maintained on agar (2% Difco) plates of LB were used to inoculate 50 mL cultures in liquid LB. E. coli was grown at 37° C. for 18 h. Bacteria were grown as a microbial biofilm using a Calgary Biofilm Device (CBD), commercially available as the MBEC™ assay, featuring 96 pegs protruding down from a microtiter plate lid and fitting into the wells of a standard 96-well microtiter plate. This device allows 96 identical biofilms to grow on the pegs at a time. Biofilms of E. coli were grown in each well using 150 μL of the culture diluted to 1×10^7 CFU (colony forming unit) following previous calibration. The biofilms were grown at 37° C. for 24 h in a shaker at 150 rpm.
The Minimum biofilm eradication concentration (MBEC) is the lowest concentration at which bacteria from a biofilm fail to regrow. The MBEC was also measured using the CBD and detailed procedure has been described elsewhere.^17, 18, 20 Biofilms were formed and washed as described above. The biofilms were then transferred to a plate containing saline with a gradient concentration of the OPEs (challenge plate). The samples exposed to light were incubated for 1 h in a LuzChem ORG photoreactor using Hitachi FL8BL-B (λ=300-400 nm) lamps, whereas the samples kept in the dark, were incubated for 24 h in a shaker at 150 rpm. The biofilms were then removed from the challenge plate and washed twice in a plate of saline solution to remove traces of OPEs. The biofilms were placed in a plate containing LB media (recovery plate) and sonicated for 10 min in an ultrasonic cleaner (VWR 97043-964) in order to recover the biofilm in the media solution through vibration. The recovery plate containing the biofilms was incubated in the dark at 37° C. for 24 h. To determine the MBEC, the growth of bacteria was evaluated in the recovery plate after incubation. […] Bacterial grown in a specific well indicates regrowth of planktonic bacteria from surviving biofilm, while clear wells indicate the eradication of the biofilms and the lack of bacteria regrowth.

E. coli K12 biofilms = experiment: Minimum inhibitory concentration (MIC) with the Calgary Biofilm Device (MBEC assay); format: cell-based, Escherichia coli K-12; conditions: 24 h, dark, 37 °C, 90% inhibition of growth, OD 600 nm
Protocol: To screen the effectiveness of EO-OPEs shown above at killing bacteria residing in a biofilm, a Calgary Biofilm Device (CBD), commercially available as the MBEC™ assay was used to grow 96 equivalent biofilms at a time, and to determine the minimum inhibitory concentration (MIC). After incubating the CBD devise in Escherichia coli (E. coli K12) suspension in LB media for 24 hours, biofilms were uniformly formed on the CBD surface. The E. coli biofilms were then incubated with EO-OPEs for 24 hours to obtain their MIC values.
as §1
The minimum inhibitory concentration (MIC) represents the lowest concentration of antimicrobial required to inhibit the visible growth of a planktonic bacterial population. The MIC was determined using the CBD.^17, 18, 20 Biofilms were formed on the peg surface of the CBD as described above and then transferred to a 96-well microtiter plate containing 200 μL of saline (0.85% NaCl aqueous solution) and washed for 5 min to remove non-adherent bacteria. The biofilms were transferred to a plate containing 200 μL of LB with a gradient concentration of the OPEs (challenge plate). Each concentration was repeated eight times (one row of the plate). The biofilms were then incubated in the dark at 37° C. for 24 h. To determine the MIC, the growth of bacteria was evaluated in the challenge plate after incubation. The optical density of each well was measured at 600 nm and the MIC was calculated for 90% inhibition of growth compared with biofilms grown in LB only.

S. aureus = experiment: Viability of S. aureus cells after UV exposure or dark incubation with oligomer solution; format: cell-based; conditions: for killing / deactivation of S. aureus: 10 min UV irradiation, 1 μg/mL printed for EO-OPE-DABCO
Protocol: FIG. 24 is a graph showing the viability of S. aureus cells with 1 μg/mL and 10 μg/mL of OPE-DABCO and EO-OPE-DABCO solution following exposure to UV light and incubation in dark.
[drawing 28] containing quaternary ammonium pendant groups based on 1,4-diazabicyclo-[2.2.2.]-octane (DABCO). It has been shown that the incorporation of the DABCO group into antimicrobials might amplify its ability to diffuse into the bacterial cell wall due to similarities between this moiety and the lipid layer. [Ref: Kenawy, E. R., S. D. Worley, and R. Broughton, The chemistry and applications of antimicrobial polymers: A state-of-the-art review. Biomacromolecules, 2007. 8(5): p. 1359-1384] Therefore, the binding of antimicrobials to the cytoplasmic membrane of the bacteria is increased by both ionic and van der Waals interactions. [Ref: Kenawy, E. R., S. D. Worley, and R. Broughton, The chemistry and applications of antimicrobial polymers: A state-of-the-art review. Biomacromolecules, 2007. 8(5): p. 1359-1384] These two oligomers have been employed to compare their antimicrobial activity both in the dark and under the UV light in regard to their structure difference.

[1] = Singlet oxygen quantum yield, emission at 1270 nm; format: physicochemical; conditions: CD3OD, 2'-acetonaphthone (ΦΔ = 0.79) as actinometer
Source text: We carried out transient absorption experiments in methanol and water solutions. […] The lifetime of the transient absorption is in the microsecond range and in each case it is efficiently quenched by O2 indicating the absorption is due to the triplet excited state. By examination of the initial amplitudes of the transient absorption (ΔA, t=0, Table 1), we were able to qualitatively determine the relative triplet yield of these oligomers. […] To substantiate our hypothesis, we carried out studies to observe singlet oxygen emission in deuterated methanol (as the life time of the singlet oxygen is very short in […]).^21 As anticipated, each of the oligomers is capable of sensitizing the formation of singlet oxygen as observed by its characteristic emission at 1270 nm. Of the oligomers studied, (C) and (E) show a higher quantum yield for singlet oxygen generation (ΦΔ) which corroborates well with the photophysical studies described above.
Absorption and fluorescence spectra were recorded on a Cary 100 UV-Vis spectrophotometer and a Photon Technology International spectrofluorometer, respectively. The optical density of the solutions was adjusted to ˜0.7 at the excitation wavelength (355 nm) with the laser energy set at ˜7 mJ. Solutions were purged with argon for 45 min before making transient absorption spectroscopy measurements. Singlet oxygen quantum yields were measured using a Photon Technology International Quantamaster near-IR spectrophotometer equipped with an InGaAs photodiode detector, optical chopper and a lock in amplifier. See Table 1 and FIGS. 1-2 for results.

[2] = Escherichia coli, K12BIOFILMS, read-out: MIC

With `NC[C@H]1O[C@H](O[C@H]2[C@H](O)[C@@H](O[C@H]3O[C@H](CO)[C@@H](O)[C@H](N)[C@H]3O)[C@H](N)C[C@@H]2N)[C@H](O)[C@@H](O)[C@@H]1O` [kanamycin, reference compound] the “MBEC (dark)” value (E. coli biofilms) was over 1000 µg/mL and the MIC (E. coli K12 biofilms; [2]) was 11.2 µg/mL (≈ 23.1 µM).
For `CCCCCC[N+]12CC[N+](CCCOc3cc(C#Cc4ccc(C(=O)OCC)cc4)c(OCCC[N+]45CC[N+](CCCCCC)(CC4)CC5)cc3C#Cc3ccc(C(=O)OCC)cc3)(CC1)CC2` [oligomer (A)], the “killing of E. coli biofilm under near-UV light exposure” value (E. coli biofilms; 1 h near-UV, in the concentration range tested) was “did not show any killing”, the “dark killing of E. coli biofilm” value (E. coli biofilms; 24 h dark, concentration range <1000 μg/mL) was “did not exhibit any dark killing” and the “MBEC (light)” value (E. coli biofilms) was over 500 µg/mL. For the same compound, the “MBEC (dark)” value (E. coli biofilms) was over 1000 µg/mL, the MIC (E. coli K12 biofilms; [2]) was 52 µg/mL and the MIC (E. coli K12 biofilms) was 51.7 µg/mL. For the same compound, the “killing / deactivation of S. aureus” value (S. aureus) was about 75%, the “deactivation of S. aureus with increasing irradiation time” value (S. aureus; UV, irradiation longer than 10 min (FIG. 24)) was about 99% and the “ΦΔ (quantum yield for singlet oxygen generation)” value [1] was 0.34 ± 0.03.
With `CCCCCC[N+]12CC[N+](CCCOc3ccc(C#Cc4ccc(C#Cc5ccc(OCCC[N+]67CC[N+](CCCCCC)(CC6)CC7)cc5)cc4)cc3)(CC1)CC2` [oligomer (B)] the “MBEC (light)” value (E. coli biofilms) was 60 µg/mL, the “MBEC (dark)” value (E. coli biofilms) was 200 µg/mL and the MIC (E. coli K12 biofilms; [2]) was 14 µg/mL. The MIC (E. coli K12 biofilms) was 14.0 µg/mL, the “killing / deactivation of S. aureus” value (S. aureus) was 100% and the bacteria surviving (S. aureus; S. aureus, 10 min incubation in the dark) was under 10%. The “ΦΔ (quantum yield for singlet oxygen generation)” value [1] was 0.20 ± 0.02.
For `CCCCCC[N+]12CC[N+](CCCOc3ccc(C#Cc4ccc(C#Cc5ccc(OCCC[N+]67CC[N+](CCCCCC)(CC6)CC7)cc5)s4)cc3)(CC1)CC2` [oligomer (C)], the “MBEC (light)” value (E. coli biofilms) was 60 µg/mL, the “MBEC (dark)” value (E. coli biofilms) was 150 µg/mL and the MIC (E. coli K12 biofilms; [2]) was 15.8 µg/mL. The “ΦΔ (quantum yield for singlet oxygen generation)” value [1] was 0.46 ± 0.02.
